# Data reported in ChEMBL document CHEMBL1201862, “PubChem BioAssay data set” (2004).
#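 Each compound was tested at five concentrations against cells in 96-well plates for 48 hours. GI50 is the concentration that inhibits growth by half.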 Activity calls are given as the source filed them. Cut-off read from the data, not from the text of the source: active = GI50 up to about 1.1 µM and inactive = higher.
# What was measured:
# Assay in all cases: growth of human tumour cells (NCI), 48 h
# SW-620 = tested on: SW-620
# Malme-3M = tested on: Malme-3M
# ACHN = tested on: ACHN
# M14 = tested on: M14
# IGROV-1 = tested on: IGROV-1
# HCT-116 = tested on: HCT-116
# NCI-H226 = tested on: NCI-H226
# HCT-15 = tested on: HCT-15
# U-251 = tested on: U-251
# NCI-H23 = tested on: NCI-H23
# HCC 2998 = tested on: HCC 2998
# K562 = tested on: K562
# Hs-578T = tested on: Hs-578T
# RXF 393 = tested on: RXF 393
# UACC-62 = tested on: UACC-62
# HOP-92 = tested on: HOP-92
# OVCAR-4 = tested on: OVCAR-4
# SK-OV-3 = tested on: SK-OV-3
# BT-549 = tested on: BT-549
SMILES,GI50 (SW-620),GI50 (Malme-3M),GI50 (ACHN),GI50 (M14),GI50 (IGROV-1),GI50 (HCT-116),GI50 (NCI-H226),GI50 (HCT-15),GI50 (U-251),GI50 (NCI-H23),GI50 (HCC 2998),GI50 (K562),GI50 (Hs-578T),GI50 (RXF 393),GI50 (UACC-62),GI50 (HOP-92),GI50 (OVCAR-4),GI50 (SK-OV-3),GI50 (BT-549)
COc1cc2c(c(OC)c1OC)C(=O)[C@H](O)[C@H]2NC(N)=O,> 100 µM (inactive),> 100 µM (inactive),34.1 µM (inactive),47.6 µM (inactive),49.5 µM (inactive),79.4 µM (inactive),> 100 µM (inactive),27.7 µM,44.2 µM (inactive),53.8 µM (inactive),> 100 µM (inactive),> 100 µM (inactive),60 µM (inactive),47.8 µM (inactive),17.6 µM (inactive),–,–,–,–
CC1=CC[C@@H]2[C@@H](CC[C@@]2(C)O)C(C)(C)[C@H]1CC[C@@H]1[C@@]2(C)CC[C@@H](O)C(C)(C)O[C@@H]2CC[C@]1(C)O,31.8 µM (inactive),–,23.2 µM (inactive),22.5 µM (inactive),–,14 µM (inactive),–,18.2 µM,17.1 µM (inactive),24.5 µM (inactive),17.5 µM (inactive),15.3 µM (inactive),–,–,15.5 µM (inactive),12.5 µM (inactive),37.2 µM (inactive),35.9 µM (inactive),18.4 µM (inactive)
Cc1cc(=O)oc2c(CNC(Cc3ccccc3)C(=O)O)c(O)ccc12 (stereo not given),> 100 µM (inactive),61.5 µM (inactive),> 100 µM (inactive),> 100 µM (inactive),> 100 µM (inactive),> 100 µM (inactive),> 100 µM (inactive),> 100 µM,> 100 µM (inactive),> 100 µM (inactive),> 100 µM (inactive),> 100 µM (inactive),> 100 µM (inactive),> 100 µM (inactive),> 100 µM (inactive),> 100 µM (inactive),> 100 µM (inactive),> 100 µM (inactive),–
Cc1nc2cccc([N+](=O)[O-])c2c(NCCCN(C)C)c1C,29.4 µM (inactive),22.2 µM (inactive),97.3 µM (inactive),35.5 µM (inactive),> 100 µM (inactive),20.9 µM (inactive),> 50.6 µM (inactive),26.5 µM,> 79.8 µM (inactive),28.1 µM (inactive),21.8 µM (inactive),31.7 µM (inactive),> 61.1 µM (inactive),16.1 µM (inactive),> 100 µM (inactive),> 100 µM (inactive),17.3 µM (inactive),> 100 µM (inactive),–
O=C(CC(C(=O)c1ccsc1)c1cccs1)c1ccsc1 (stereo not given),> 100 µM (inactive),56.8 µM (inactive),42 µM (inactive),56 µM (inactive),> 100 µM (inactive),–,> 100 µM (inactive),45.6 µM,> 100 µM (inactive),32.6 µM (inactive),> 100 µM (inactive),42.8 µM (inactive),–,–,31.5 µM (inactive),–,73.5 µM (inactive),54.6 µM (inactive),–
O=C1OCCC[C@H]2O[C@@H](COCc3ccccc3)C[C@@H]12,> 100 µM (inactive),–,> 100 µM (inactive),> 100 µM (inactive),–,> 100 µM (inactive),> 100 µM (inactive),> 100 µM,> 100 µM (inactive),> 100 µM (inactive),–,> 100 µM (inactive),> 100 µM (inactive),–,> 100 µM (inactive),> 100 µM (inactive),> 100 µM (inactive),> 100 µM (inactive),–
CO[C@]12CC(=O)C3(C(C[C@H]4CC5CC[C@H]6C[C@@H](OC(C)=O)CC[C@]6(OC(C)=O)C5C[C@@]43C)C1)C1C[C@H]3[C@@H]4CC[C@H]5C[C@@H](OC(C)=O)CC[C@]5(OC(C)=O)[C@H]4CC[C@]3(C)C12 (stereo not given in full),> 100 µM (inactive),> 100 µM (inactive),> 100 µM (inactive),> 100 µM (inactive),> 100 µM (inactive),42.5 µM (inactive),–,90.2 µM,75.5 µM (inactive),83.4 µM (inactive),59.2 µM (inactive),54.6 µM (inactive),71.4 µM (inactive),–,84.3 µM (inactive),> 100 µM (inactive),17.1 µM (inactive),> 100 µM (inactive),–
CC1=C(C(N)=O)C(c2ccncc2)C(C#N)C(=O)N1 (stereo not given),> 100 µM (inactive),–,> 100 µM (inactive),> 100 µM (inactive),> 100 µM (inactive),> 100 µM (inactive),–,> 100 µM,> 100 µM (inactive),> 100 µM (inactive),> 100 µM (inactive),> 100 µM (inactive),> 100 µM (inactive),> 100 µM (inactive),> 100 µM (inactive),> 100 µM (inactive),> 100 µM (inactive),> 100 µM (inactive),–
CCCCOC(=O)NC(Nc1cccc(C(F)(F)F)c1)(C(F)(F)F)C(F)(F)F,64.3 µM (inactive),29.2 µM (inactive),47.4 µM (inactive),47.3 µM (inactive),49.5 µM (inactive),> 100 µM (inactive),53.7 µM (inactive),45.2 µM,36.1 µM (inactive),50.8 µM (inactive),–,30.5 µM (inactive),44.7 µM (inactive),50.7 µM (inactive),58.5 µM (inactive),23.9 µM (inactive),99.8 µM (inactive),–,–
CC1CC(NN(C)C)C2(C(N)=O)C(N)=NC(=O)C12C#N (stereo not given),> 100 µM (inactive),> 100 µM (inactive),> 100 µM (inactive),> 100 µM (inactive),> 100 µM (inactive),> 100 µM (inactive),> 100 µM (inactive),> 100 µM,> 100 µM (inactive),> 100 µM (inactive),> 100 µM (inactive),> 100 µM (inactive),> 100 µM (inactive),> 100 µM (inactive),> 100 µM (inactive),> 100 µM (inactive),–,> 100 µM (inactive),–
CCOC(=O)c1sc2c(c1OC(=O)c1cc(OC)c(OC)c(OC)c1)c(=O)n(-c1ccccc1)c(=S)n2-c1ccccc1,> 100 µM (inactive),> 100 µM (inactive),> 100 µM (inactive),40.5 µM (inactive),> 100 µM (inactive),> 100 µM (inactive),> 100 µM (inactive),47.3 µM,49.8 µM (inactive),53.1 µM (inactive),81.3 µM (inactive),65 µM (inactive),51.2 µM (inactive),> 100 µM (inactive),51.8 µM (inactive),22.2 µM (inactive),70.8 µM (inactive),> 100 µM (inactive),–
C=C(Br)C[N+]12CN3CN(CN(C3)C1)C2,> 100 µM (inactive),> 100 µM (inactive),> 100 µM (inactive),> 100 µM (inactive),> 100 µM (inactive),> 100 µM (inactive),> 100 µM (inactive),> 100 µM,> 100 µM (inactive),> 100 µM (inactive),> 100 µM (inactive),> 100 µM (inactive),> 100 µM (inactive),> 100 µM (inactive),> 100 µM (inactive),> 100 µM (inactive),> 100 µM (inactive),> 100 µM (inactive),–
COc1ccc2c(c1)nc1n2C(c2c(F)cccc2Cl)SC1 (stereo not given),–,1.02 µM (active),20.8 µM (inactive),3.9 µM (inactive),6.17 µM (inactive),4.14 µM (inactive),4.75 µM (inactive),3.03 µM,5.08 µM (inactive),3.59 µM (inactive),4.2 µM (inactive),> 100 µM (inactive),1.69 µM (inactive),–,7.26 µM (inactive),> 37.3 µM (inactive),–,–,–
Cc1cc(Cl)cc2c1NC(=O)C2(O)CC(=O)c1ccc(F)cc1 (stereo not given),94 µM (inactive),29.3 µM (inactive),32.5 µM (inactive),88.5 µM (inactive),58.9 µM (inactive),56.4 µM (inactive),39.8 µM (inactive),74.1 µM,39 µM (inactive),61.1 µM (inactive),36.1 µM (inactive),–,–,19.7 µM (inactive),20 µM (inactive),> 100 µM (inactive),41.9 µM (inactive),> 100 µM (inactive),–
Cc1ccc(-c2nnc(CCCCCCCCc3nnc(-c4ccc(C)cc4O)n3N)n2N)c(O)c1,> 100 µM (inactive),> 100 µM (inactive),> 100 µM (inactive),> 100 µM (inactive),> 100 µM (inactive),> 100 µM (inactive),–,> 100 µM,> 100 µM (inactive),> 100 µM (inactive),> 100 µM (inactive),–,44.9 µM (inactive),–,> 100 µM (inactive),9.71 µM (inactive),> 100 µM (inactive),39.2 µM (inactive),–
CCOC(=O)c1c(-c2cccc3ccccc23)c(C#N)c(=S)n(C2OC(COC(C)=O)C(OC(C)=O)C(OC(C)=O)C2OC(C)=O)c1C (stereo not given),–,> 100 µM (inactive),> 100 µM (inactive),> 100 µM (inactive),> 100 µM (inactive),> 100 µM (inactive),> 100 µM (inactive),> 100 µM,> 100 µM (inactive),> 100 µM (inactive),> 100 µM (inactive),> 100 µM (inactive),–,> 100 µM (inactive),> 100 µM (inactive),> 100 µM (inactive),> 100 µM (inactive),> 100 µM (inactive),–
Cc1cc(C)c2[s+]snc2c1,37.6 µM (inactive),> 100 µM (inactive),> 100 µM (inactive),37.8 µM (inactive),> 100 µM (inactive),39.3 µM (inactive),> 100 µM (inactive),–,48.9 µM (inactive),54 µM (inactive),> 100 µM (inactive),27.7 µM (inactive),–,37.4 µM (inactive),36.6 µM (inactive),–,> 100 µM (inactive),> 100 µM (inactive),–
